Experimental data as given in patent US11046697B2, “Compounds and compositions useful for treating disorders related to NTRK” (BLUEPRINT MEDICINES CORPORATION, priority 2015, dated 2021).
Like-named read-outs stand apart in the source and are kept apart here.

Assays:
[1] = system: KM12 wild type colon carcinoma cell line harboring the TPM3-NTRK1 fusion protein; assay: NTRK wild type cellular assay (CellTiter-Glo growth inhibition); assay type: cell-based; details: 72 hr, CellTiter-Glo, read-out: KM12 (WT) IC50
Procedure: (§1) NTRK Wild Type and G595R Mutant Cellular Assays Protocol
(§2) KM12 wild type colon carcinoma cell line harboring the TPM3-NTRK1 fusion protein was obtained from the National Cancer Institute (NCI). This line has been previously shown to be dependent upon the NTRK activity derived from the NTRK fusion protein for growth and survival. […] Cells were first plated in 384-well plates at 1000 cells/well in complete media (10% FBS and 1% pen/strep) and incubated overnight at 37° C. Cells were then dosed with test articles at varying concentrations using the Bravo liquid handling system. […] Each compound was run in duplicate per plate. […] 72 hr after dosing, assay plates were developed using CellTiter-Glo (Promega) and resultant luminescence was read on the Envision plate reader. IC50 determinations were calculated using a 4-parameter curve fitting algorithm

[2] = system: KM12 Cliff (G595R) cell line; assay: NTRK G595R mutant cellular assay (CellTiter-Glo growth inhibition); assay type: cell-based; details: 72 hr, CellTiter-Glo
Procedure: as §1, §2

wild type NTRK1 enzyme = target: T1, wild type NTRK1 enzyme (Homo sapiens, UniProt P04629); assay: NTRK1 Wild Type Assay at 1 mM ATP; assay type: biochemical; details: 1 mM ATP; read-out: Enz NTRK1 IC50
T1 construct: purchased BPS Bioscience 40280
Procedure: NTRK1 Wild Type Assay at 1 mM ATP
The reaction was stopped by the addition of 70 μL of Stop buffer (100 mM HEPES pH 7.5, 0.015% Brij 35, 35 mM EDTA and 0.2% of Coating Reagent 3 (Caliper Lifesciences)). The plate was then read on a Caliper EZReader 2 (protocol settings: −1.7 psi, upstream voltage −500, downstream voltage −3000, post sample sip 35s).

T1 sequence (P04629 440-796 limits assumed): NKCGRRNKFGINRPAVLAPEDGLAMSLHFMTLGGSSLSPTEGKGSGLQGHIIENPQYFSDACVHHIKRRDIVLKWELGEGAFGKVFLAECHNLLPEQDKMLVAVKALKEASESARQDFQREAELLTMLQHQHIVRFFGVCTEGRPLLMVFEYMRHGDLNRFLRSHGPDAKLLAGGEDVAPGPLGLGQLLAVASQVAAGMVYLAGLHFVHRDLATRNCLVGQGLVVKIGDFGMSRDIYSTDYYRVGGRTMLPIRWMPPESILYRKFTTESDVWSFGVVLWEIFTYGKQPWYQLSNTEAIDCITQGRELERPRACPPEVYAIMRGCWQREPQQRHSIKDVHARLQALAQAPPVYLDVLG

SMILES | IC50 ([1]; Homo sapiens, KM12, 72 h) | IC50 (wild type NTRK1 enzyme) | IC50 [1] | IC50 ([2]; Homo sapiens, KM12, 72 h) | IC50 [2]
O=C(NCc1cc(F)ccc1F)c1n[nH]c2ncnc(NC3CC(F)(F)CC3O)c12 (stereo not drawn) [Compound 42] |  | 0.1 to 1 µM | > 1 µM |  | > 1 µM
O=C(NCc1cc(F)ccc1F)c1n[nH]c2ncnc(NC3CC(F)(F)CC3O)c12 (stereo not drawn) [Compound 43] |  | 0.01 to 0.1 µM | 0.01 to 0.1 µM |  | 0.1 to 1 µM
CN(Cc1cc(F)cc(C#N)c1)C(=O)c1n[nH]c2ncnc(NC3CCC(O)C3O)c12 (stereo not drawn) [Compound 44] |  | 0.01 to 0.1 µM | 0.01 to 0.1 µM |  | 0.1 to 1 µM
O=C(NC1(c2cc(F)ccc2F)CC1)c1n[nH]c2ncnc(N[C@@H]3COCC[C@H]3O)c12 [Compound 47] |  | 0.1 to 1 µM | 0.1 to 1 µM |  | 0.1 to 1 µM
COc1c(F)cc(F)cc1CNC(=O)c1n[nH]c2ncnc(N[C@@H]3COCC[C@H]3O)c12 [Compound 54] | 0.1 to 1 µM | 0.01 to 0.1 µM |  | 0.1 to 1 µM | 
O=C(N[C@H](CO)c1cc(F)ccc1F)c1n[nH]c2ncnc(N[C@@H]3COCC[C@H]3O)c12 [Compound 56] | 0.1 to 1 µM | 0.01 to 0.1 µM |  | 0.1 to 1 µM | 
CN(Cc1cc(F)cnc1Cl)C(=O)c1n[nH]c2ncnc(N[C@@H]3CC[C@@H](O)[C@H]3O)c12 [Compound 60] | 0.01 to 0.1 µM | 0.01 to 0.1 µM |  | 0.01 to 0.1 µM | 
O=C(NC(CO)c1cc(F)ccc1F)c1n[nH]c2ncnc(NC3CC(F)CC3O)c12 (stereo not drawn) [Compound 61] | 0.1 to 1 µM | 0.1 to 1 µM |  | > 1 µM | 
O=C(c1n[nH]c2ncnc(N[C@@H]3CC[C@@H](O)[C@H]3O)c12)N1CCC[C@@H]1c1cc(F)ccc1F [Compound 71] | 0.01 to 0.1 µM | 0.01 to 0.1 µM |  | 0.1 to 1 µM | 
N#C[C@H]1C[C@H](c2cc(F)ccc2F)N(C(=O)c2n[nH]c3ncnc(N[C@@H]4COCC[C@H]4O)c23)C1 [Compound 100] | 0.01 to 0.1 µM | 0.01 to 0.1 µM |  | 0.1 to 1 µM | 
O=C(NCc1cc(F)ccc1OC(F)(F)F)c1n[nH]c2ncnc(N[C@@H]3CC[C@@H](O)[C@H]3O)c12 [Compound 101] | 0.1 to 1 µM | 0.1 to 1 µM |  | 0.1 to 1 µM | 
O=C(N[C@@H](c1cc(F)ccc1F)C(F)(F)F)c1n[nH]c2ncnc(N[C@@H]3COCC[C@H]3O)c12 [Compound 103] | > 1 µM | > 1 µM |  | > 1 µM | 
O=C(c1n[nH]c2ncnc(N[C@@H]3CC[C@@H](O)[C@H]3O)c12)N1CC(F)(F)C[C@@H]1c1cc(F)cc(F)c1 [Compound 108] | 0.1 to 1 µM | 0.01 to 0.1 µM |  | 0.1 to 1 µM | 
O=C(c1n[nH]c2ncnc(N[C@H]3[C@H](O)[C@H](O)[C@@H]4C[C@@H]43)c12)N1CC(F)(F)C[C@@H]1c1cc(F)ccc1F [Compound 112] | 0.01 to 0.1 µM | 0.01 to 0.1 µM |  | 0.1 to 1 µM | 
COc1ccc(F)cc1CNC(=O)c1n[nH]c2ncnc(N[C@@H]3CC[C@@H](O)[C@H]3O)c12 [Compound 117] | 0.1 to 1 µM | 0.1 to 1 µM |  | > 1 µM | 
CN(Cc1cc(F)cc(Cl)c1F)C(=O)c1n[nH]c2ncnc(N[C@@H]3CC[C@@H](O)[C@H]3O)c12 [Compound 120] | 0.01 to 0.1 µM | 0.01 to 0.1 µM |  | 0.01 to 0.1 µM | 

Now from value to compound, other results behind:

IC50 ([1]; Homo sapiens, KM12, 72 h) | IC50 (wild type NTRK1 enzyme) | IC50 [1] | SMILES | IC50 ([2]; Homo sapiens, KM12, 72 h) | IC50 [2]
0.1 to 1 µM | 0.01 to 0.1 µM |  | O=C(NCc1cc(F)cc(F)c1F)c1n[nH]c2ncnc(N[C@@H]3CC[C@@H](O)[C@H]3O)c12 [Compound 41] | 0.1 to 1 µM | 
< 0.01 µM | < 0.01 µM |  | O=C(c1n[nH]c2ncnc(N[C@@H]3CCC[C@H]3O)c12)N1CCC[C@@H]1c1cc(F)ccc1F [Compound 45, ((R)-2-(2,5-difluorophenyl)pyrrolidin-1-yl)(4-(((1R,2R)-2-hydroxycyclopentyl)amino)-1H-pyrazolo[3,4-d]pyrimidin-3-yl)methanone] | < 0.01 µM | 
 | < 0.01 µM | < 0.01 µM | O=C(c1n[nH]c2ncnc(NC3CCCC3O)c12)N1CC(F)CC1c1cncc(F)c1 (stereo not drawn) [Compound 46] |  | < 0.01 µM
0.01 to 0.1 µM | 0.01 to 0.1 µM |  | COc1cc(F)cc(CN(C)C(=O)c2n[nH]c3ncnc(N[C@@H]4CC[C@@H](O)[C@H]4O)c23)c1 [Compound 48] | 0.1 to 1 µM | 
0.01 to 0.1 µM | < 0.01 µM |  | CN(Cc1cc(F)cc(F)c1F)C(=O)c1n[nH]c2ncnc(N[C@@H]3CC[C@@H](O)[C@H]3O)c12 [Compound 63] | 0.01 to 0.1 µM | 
< 0.01 µM | < 0.01 µM |  | O=C(c1n[nH]c2ncnc(N[C@@H]3CCOC[C@H]3O)c12)N1C[C@@H](F)C[C@@H]1c1cncc(F)c1 [Compound 73] | 0.01 to 0.1 µM | 
0.01 to 0.1 µM | < 0.01 µM |  | O=C(c1n[nH]c2ncnc(N[C@@H]3COCC[C@H]3O)c12)N1C[C@@H](F)C[C@@H]1c1cncc(F)c1 [Compound 74] | 0.01 to 0.1 µM | 
< 0.01 µM | < 0.01 µM |  | O=C(c1n[nH]c2ncnc(N[C@@H]3COC[C@H]3O)c12)N1C[C@@H](F)C[C@@H]1c1cc(F)ccc1F [Compound 78] | 0.01 to 0.1 µM | 
< 0.01 µM | < 0.01 µM |  | N#C[C@H]1C[C@H](c2cc(F)ccc2F)N(C(=O)c2n[nH]c3ncnc(N[C@@H]4CCC[C@H]4O)c23)C1 [Compound 79] | 0.01 to 0.1 µM | 
< 0.01 µM | < 0.01 µM |  | O=C(c1n[nH]c2ncnc(N[C@@H]3C[C@@H](O)C[C@H]3O)c12)N1C[C@@H](F)C[C@@H]1c1cc(F)ccc1F [Compound 86] | < 0.01 µM | 
< 0.01 µM | < 0.01 µM |  | O=C(c1n[nH]c2ncnc(N[C@@H]3COCC[C@H]3O)c12)N1C[C@@H](F)C[C@@H]1c1cc(F)ccc1F [Compound 92] | < 0.01 µM | 
< 0.01 µM | < 0.01 µM |  | O=C(c1n[nH]c2ncnc(NC3CC(F)CC3O)c12)N1CC(F)CC1c1cc(F)ccc1F (stereo not drawn) [Compound 95] | < 0.01 µM | 
0.01 to 0.1 µM | < 0.01 µM |  | CS(=O)(=O)[C@H]1C[C@@H](O)[C@H](Nc2ncnc3[nH]nc(C(=O)NCc4cc(F)ccc4F)c23)C1 [Compound 97, N-(2,5-difluorobenzyl)-4-(((1R,2R,4R)-2-hydroxy-4-(methylsulfonyl)cyclopentyl)amino)-1H-pyrazolo[3,4-d]pyrimidine-3-carboxamide] | 0.1 to 1 µM | 
< 0.01 µM | < 0.01 µM |  | CN(Cc1cc(F)ccc1C(F)(F)F)C(=O)c1n[nH]c2ncnc(N[C@@H]3CC[C@@H](O)[C@H]3O)c12 [Compound 99] | < 0.01 µM | 
< 0.01 µM | < 0.01 µM |  | O=C(c1n[nH]c2ncnc(N[C@H]3[C@H](O)[C@H](O)[C@@H]4C[C@@H]43)c12)N1C[C@@H](F)C[C@@H]1c1cc(F)ccc1F [Compound 104] | < 0.01 µM | 
< 0.01 µM | < 0.01 µM |  | O=C(c1n[nH]c2ncnc(N[C@@H]3CCC[C@@H](O)[C@H]3O)c12)N1C[C@@H](F)C[C@@H]1c1cc(F)ccc1F [Compound 106] | < 0.01 µM | 
0.01 to 0.1 µM | < 0.01 µM |  | CN(Cc1cc(F)ccc1OC(F)(F)F)C(=O)c1n[nH]c2ncnc(N[C@@H]3CC[C@@H](O)[C@H]3O)c12 [Compound 110] | 0.01 to 0.1 µM | 
< 0.01 µM | < 0.01 µM |  | O=C(c1n[nH]c2ncnc(N[C@@H]3C[C@@H](C(F)F)[C@@H](O)[C@H]3O)c12)N1C[C@@H](F)C[C@@H]1c1cc(F)ccc1F [Compound 114] | < 0.01 µM | 
< 0.01 µM | < 0.01 µM |  | CS(=O)(=O)C1CC(O)C(Nc2ncnc3[nH]nc(C(=O)N4CC(F)CC4c4cc(F)ccc4F)c23)C1 (stereo not drawn) [Compound 116] | < 0.01 µM | 
